For six molecules, viability and Activity results are on record in ChEMBL document CHEMBL6153134, “Anti-inflammatory and Hepatoprotective Iridoid Glycosides from the Roots of Gomphandra mollis” (J Nat Prod, 2025).

Holding throughout (type): functional
Assay [1] has as its system HepG2. Nature of the assay: Hepatoprotective activity against APAP-induced cytotoxicity in human HepG2 cells assessed as cell viability at 40 uM pretreated for 8 hrs followed by APAP addition for 36 hrs by MTT assay (reference value: 68.1%). To be noted: time 44 hrs, read-out: Activity. A general note: Tetrazolium dyes change colour on reduction, which living cells bring about.

Assay [2] has as its system HepG2. Nature of the assay: Hepatoprotective activity against APAP-induced cytotoxicity in human HepG2 cells assessed as cell viability at 40 to 80 uM pretreated for 8 hrs followed by APAP addition for 36 hrs by MTT assay (reference value: 68.1%). To be noted: dose 40-80 µM, time 44 hrs.
The subject of assay [3] is HepG2. The assay can be described thus: Hepatoprotective activity against APAP-induced cytotoxicity in human HepG2 cells assessed as cell viability at 50 ug/mL pretreated for 8 hrs followed by APAP addition for 36 hrs by MTT assay (reference value: 68.1%). The following applies: time 44 hrs, read-out: Activity.

As to `C=CC1C(CC(OC)OC)C(C(=O)O[C@H]2CC3C(C(=O)OC)=CO[C@@H](O[C@@H]4O[C@H](CO)[C@@H](O)[C@H](O)[C@H]4O)C3[C@H]2C)=CO[C@H]1O[C@@H]1O[C@H](CO)[C@@H](O)[C@H](O)[C@H]1O` (stereo partly specified), the viability at 40 µM in the assay on HepG2 [1] stood at 75.6%.
As for `C=C[C@H]1[C@H](O[C@@H]2O[C@H](CO)[C@@H](O)[C@H](O)[C@H]2O)OC=C(C(=O)O[C@H]2C[C@@H]3C(C(=O)OC)=CO[C@@H](O[C@@H]4O[C@H](CO)[C@@H](O)[C@H](O)[C@H]4O)[C@@H]3[C@H]2C)[C@H]1C[C@@H]1O[C@@H]2[C@@H](O)[C@@H](OC[C@H]3O[C@@](CO)(O[C@H]4O[C@H](CO)[C@@H](O)[C@H](O)[C@H]4O)[C@@H](O)[C@@H]3O)O[C@H](CO)[C@@H]2O1`, the Activity in the assay with HepG2 [2] is given as 75.6%.
Regarding `C=C[C@H]1[C@H](O[C@@H]2O[C@H](CO)[C@@H](O)[C@H](O)[C@H]2O)OC=C(C(=O)O[C@H]2C[C@@H]3CCOC(=O)[C@@H]3[C@H]2C)[C@H]1C[C@@H](O)O[C@@H](O)C[C@@H]1C(C(=O)O[C@H]2C[C@@H]3CCOC(=O)[C@@H]3[C@H]2C)=CO[C@@H](O[C@@H]2O[C@H](CO)[C@@H](O)[C@H](O)[C@H]2O)[C@@H]1C=C`, the viability at 40 µM in the assay with HepG2 [1] worked out at 75.6%.
Take `C=C[C@H]1[C@H](O[C@@H]2O[C@H](CO)[C@@H](O)[C@H](O)[C@H]2O)OC=C(C(=O)O[C@H]2C[C@@H]3C(C(=O)OC)=CO[C@@H](O[C@@H]4O[C@H](CO)[C@@H](O)[C@H](O)[C@H]4O)[C@@H]3[C@H]2C)[C@H]1CC=O`: in the assay with HepG2 [2], the Activity is given as 75.6%.
`COc1cc([C@H]2Oc3cc([C@H]4Oc5cc(O)cc(O)c5C(=O)[C@@H]4O)ccc3O[C@@H]2CO)ccc1O` [SILYBIN A]: the viability at 50 µg/mL in the assay with HepG2 [3] came to 90.9%.
`C=C[C@H]1[C@H](O[C@@H]2O[C@H](CO)[C@@H](O)[C@H](O)[C@H]2O)OC=C2C(=O)OCC[C@H]21` [SWEROSIDE]: the Activity in the assay with HepG2 [2] was found to be 75.6%.
